{"source": "paper PMC6658617", "about": "“Structure-Guided Identification of Resistance Breaking Antimalarial N‑Myristoyltransferase Inhibitors” (Cell Chemical Biology, 2019)", "key": {"[1]": {"system": "P. falciparum 3D7 PfNMT[G386E] clones", "test": "microbe, parasite or virus in culture", "assay_type": "cell-based", "settings": "for EC50: Plasmodium falciparum"}, "WT 3D7 parasites": {"system": "WT 3D7 parasites", "test": "Flow cytometry of Hoechst-stained parasites (number of nuclei)", "assay_type": "cell-based, P. falciparum", "settings": "140 nM for 45 h from ring stage", "description": "Synchronized parasites were incubated with DMSO or NMTi and samples were fixed in 2% PFA, 0.2 % glutaraldehyde for 1 hour at 45 h PI. Subsequently samples were washed in PBS and labelled with 1:500 of 10 mg/mL Hoechst 33342 for 10 min with a subsequent wash in PBS. For analysis, a Flow Cytometry CL1 Fortessa D Analyzer from BD with FACSDiva software v8.0.1 was used with the 450-50 filter counting 50,000 RBC per sample. Data were analyzed using FlowJo LLC 2006-2015 to determine the median fluorescence intensity (MFI) of each sample after gating out the RBC population using an RBC only sample as a control. The MFI of each sample was divided by the MFI of a control sample of synchronized rings with a known MFI of one nucleus."}, "PvNMT[WT] [2]": {"biological_target": "T1, PvNMT[WT] (Plasmodium vivax, UniProt A5K1A2)", "T1 construct": "hexaHis (3C protease-cleavable) (N); made in house; host or cells: E. coli Rosetta-gami (DE3), pET11a", "T1 sequence (A5K1A2 entry or part of it)": "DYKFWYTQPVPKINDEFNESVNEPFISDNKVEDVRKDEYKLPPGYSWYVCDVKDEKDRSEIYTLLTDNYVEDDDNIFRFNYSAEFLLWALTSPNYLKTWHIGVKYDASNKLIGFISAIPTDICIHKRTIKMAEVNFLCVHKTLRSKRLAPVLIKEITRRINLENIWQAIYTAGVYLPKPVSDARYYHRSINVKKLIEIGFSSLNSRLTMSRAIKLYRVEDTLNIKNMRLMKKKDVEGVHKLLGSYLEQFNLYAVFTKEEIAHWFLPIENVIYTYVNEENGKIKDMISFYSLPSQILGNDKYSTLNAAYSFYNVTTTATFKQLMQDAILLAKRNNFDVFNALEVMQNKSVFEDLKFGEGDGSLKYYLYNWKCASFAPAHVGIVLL", "test": "biochemical", "assay_type": "binding", "settings": "5 μM compound, absence of MyrCoA; read-out: thermal stabilization (ΔTm) of PvNMT[WT]"}, "PvNMT[G386E] [3]": {"biological_target": "T2, PvNMT[G386E] (Plasmodium vivax, UniProt A5K1A2, G386E)", "T2 sequence (A5K1A2 27-410 G386E)": "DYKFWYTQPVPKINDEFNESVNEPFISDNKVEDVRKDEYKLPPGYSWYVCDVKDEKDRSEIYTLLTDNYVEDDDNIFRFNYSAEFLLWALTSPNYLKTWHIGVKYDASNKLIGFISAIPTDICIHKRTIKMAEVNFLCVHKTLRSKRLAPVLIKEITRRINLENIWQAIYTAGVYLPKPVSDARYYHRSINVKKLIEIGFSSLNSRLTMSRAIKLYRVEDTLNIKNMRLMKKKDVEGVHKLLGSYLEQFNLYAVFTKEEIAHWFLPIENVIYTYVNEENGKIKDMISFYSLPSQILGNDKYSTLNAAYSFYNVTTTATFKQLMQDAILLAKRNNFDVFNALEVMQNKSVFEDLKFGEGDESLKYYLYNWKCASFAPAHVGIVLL", "assay_type": "binding, P. vivax"}, "[4]": {"system": "N-myristoylation in PfNMT[G386E] parasite clones", "assay_type": "cell-based", "settings": "140 nM, 36–45 h post-invasion"}, "HsNMT1": {"biological_target": "HsNMT1 (Homo sapiens, UniProt P30419)", "sequence (P30419 whole entry)": "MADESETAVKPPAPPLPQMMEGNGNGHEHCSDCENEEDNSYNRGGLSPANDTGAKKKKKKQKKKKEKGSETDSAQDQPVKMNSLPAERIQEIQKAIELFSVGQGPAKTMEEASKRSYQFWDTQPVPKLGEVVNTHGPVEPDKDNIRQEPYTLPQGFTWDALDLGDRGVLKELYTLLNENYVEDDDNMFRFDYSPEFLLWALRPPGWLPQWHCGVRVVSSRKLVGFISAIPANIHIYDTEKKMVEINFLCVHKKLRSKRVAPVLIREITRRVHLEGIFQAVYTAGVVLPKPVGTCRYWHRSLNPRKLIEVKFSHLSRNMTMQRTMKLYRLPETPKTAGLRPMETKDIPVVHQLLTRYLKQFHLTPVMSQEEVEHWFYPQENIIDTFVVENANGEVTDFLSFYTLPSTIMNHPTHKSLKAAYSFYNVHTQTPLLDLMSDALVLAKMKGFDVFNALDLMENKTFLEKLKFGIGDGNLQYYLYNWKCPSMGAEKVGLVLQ", "assay_type": "biochemical", "settings": "selectivity, CPM assay"}, "PvNMT[WT] [5]": {"biological_target": "T1, PvNMT[WT]", "assay_type": "binding", "settings": "SPR sensorgrams"}, "[6]": {"system": "P. falciparum Dd2 parental line", "test": "microbe, parasite or virus in culture", "assay_type": "cell-based", "settings": "EC50 after 72 h (n = 3)"}, "PvNMT[G386E] [7]": {"biological_target": "T2, PvNMT[G386E]", "test": "biochemical", "assay_type": "biochemical, P. vivax"}, "[8]": {"system": "P. falciparum 3D7 parasites (PfNMT[WT])", "test": "microbe, parasite or virus in culture", "assay_type": "cell-based", "settings": "for EC50: Plasmodium falciparum"}, "[9]": {"system": "IMP-1002-resistant P. falciparum Dd2 parasites (uncloned population and clones, NMT G386E)", "test": "microbe, parasite or virus in culture", "assay_type": "cell-based", "settings": "for EC50: Plasmodium falciparum, DD2, 72 h"}, "PvNMT[G386E] [10]": {"biological_target": "T2, PvNMT[G386E]", "test": "Thermal shift assay", "assay_type": "binding, P. vivax", "settings": "5 μM compound"}, "HsNMT2": {"biological_target": "HsNMT2 (Homo sapiens, UniProt O60551)", "sequence (O60551 whole entry)": "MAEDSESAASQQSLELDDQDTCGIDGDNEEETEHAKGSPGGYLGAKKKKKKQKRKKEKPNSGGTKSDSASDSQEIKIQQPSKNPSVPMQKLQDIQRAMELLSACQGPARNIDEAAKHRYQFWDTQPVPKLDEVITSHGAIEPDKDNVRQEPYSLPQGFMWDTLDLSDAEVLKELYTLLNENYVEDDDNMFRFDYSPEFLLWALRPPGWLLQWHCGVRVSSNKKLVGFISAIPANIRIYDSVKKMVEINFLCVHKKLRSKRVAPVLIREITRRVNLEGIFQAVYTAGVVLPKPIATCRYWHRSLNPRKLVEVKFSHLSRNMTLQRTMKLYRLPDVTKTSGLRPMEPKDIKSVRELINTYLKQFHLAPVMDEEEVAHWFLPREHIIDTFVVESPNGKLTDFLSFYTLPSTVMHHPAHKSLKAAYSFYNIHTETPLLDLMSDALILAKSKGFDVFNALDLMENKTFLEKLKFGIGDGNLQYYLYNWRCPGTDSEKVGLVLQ", "assay_type": "biochemical", "settings": "selectivity, CPM assay"}, "[11]": {"system": "N-myristoylation in WT 3D7 parasites", "test": "YnMyr metabolic labelling of NMT substrates", "assay_type": "cell-based, P. falciparum", "settings": "140 nM, 36–45 h post-invasion", "description": "Synchronized populations of stage-specific parasites were labelled with 25 μM of YnMyr for the specified length of time. Parasites were then lysed in 0.15 % saponin for 10 min on ice. The pellet was washed until the supernatant was colorless and then stored at -80°C. Thawed parasite pellets were extracted in 1 % Triton X-100, 0.1 % SDS in PBS on ice for 20 min with 1 min sonication. The protein concentration of the lysate was measured by BCA assay and adjusted to 1 mg/mL with PBS. The capture reagent was ‘clicked’ (100 μM capture reagent AzRB2, 1 mM CuSO4, 1 mM TCEP, 100 μM TBTA), the reaction was quenched with EDTA, and then precipitated proteins were washed with ice cold methanol as described previously ([Heal et al., 2011], [Wright et al., 2015]). Proteins were re-dissolved in 2 % SDS, 10 mM DTT, in PBS at 1 mg/mL and heated for 7 min at 95°C in sample loading buffer prior to SDS-PAGE.\nFollowing the click reaction, the protein solution in PBS containing 2 % SDS, 10 mM DTT was treated with 0.2 M NaOH for 1 h at room temperature with vortexing. Samples were neutralized with an equivalent volume and concentration of HCl and diluted with PBS to 1 mg/mL prior to gel analysis."}, "[12]": {"system": "P. falciparum 3D7 parasites", "test": "Parasite development and GAP45 immunofluorescence at four times EC50", "assay_type": "cell-based", "settings": "at four times the EC50 value (140 nM), 45 h PI", "description": "For IFA, slides were air dried, fixed in 4 % paraformaldehyde (PFA) in PBS for 10–20 min, permeabilized in 0.1 % Triton X-100 in PBS for 10 min, and blocked with 3 % BSA in PBS for at least 30 min at 4°C. GAP45 detection was achieved using a primary rabbit anti-GAP45-antibody ([Rees-Channer et al., 2006]). Slides were mounted in ProLong® Gold Antifade mounting medium containing DAPI (4’,6-diamidino-2-phenylindole), and viewed on a Nikon Eclipse Ni-E imaging system with a Hamamatsu Orca-flash 4.0 digital camera and a Plan apo λ 100x/1.45 oil immersion objective. Images were captured using Nikon’s NIS-Elements imaging software generating Z-stack images of individual parasites, using deconvolution options and exporting the image as a tiff file, which was further edited using Adobe Photoshop."}, "PfNMT[G386E] parasites": {"system": "PfNMT[G386E] parasites", "test": "microbe, parasite or virus in culture", "assay_type": "cell-based"}, "[13]": {"system": "P. falciparum 3D7 parasites", "parameters": "method as in Wright et al., 2014", "settings": "four times the EC50 concentration from beginning of 48-h cycle, ref Wright et al., 2014; cited from earlier work"}, "[14]": {"settings": "3D7, read-out: Growth assay PfNMT[G386E] Clone 1 EC50"}, "[15]": {"settings": "3D7, read-out: Growth assay PfNMT[G386E] Clone 2 EC50"}, "[16]": {"settings": "3D7, read-out: Growth assay PfNMT[WT] EC50"}}, "note": "Read-outs that look alike come from different tables or passages of the source.", "data": [{"compound": "Cc1nn(C)c(C)c1CCOc1cc(F)ccc1-c1ccc2c(c1)c(CN(C)C)nn2C", "note": "[IMP-1002, 1-(5-(4-fluoro-2-(2-(1,3,5-trimethyl-1H-pyrazol-4-yl)ethoxy)phenyl)-1-methyl-1H-indazol-3-yl)-N,N-dimethylmethanamine]", "values": [{"measurement": "Ratio PfNMT[G386]/PfNMT[WT] EC50, Clone 1", "setting": "[1]; EC50 of [G386E]/[WT], Clone 1", "value": 24}, {"measurement": "Ratio PfNMT[G386]/PfNMT[WT] EC50, Clone 2", "setting": "[1]; EC50 of [G386E]/[WT], Clone 2", "value": 21}, {"measurement": "EC50", "setting": "[1]; [14]", "value": 230, "unit": "nM"}, {"measurement": "EC50", "setting": "[1]; [15]", "value": 201, "unit": "nM"}, {"measurement": "number of nuclei versus DMSO control, WT parasites", "setting": "WT 3D7 parasites", "value": "reduced number of nuclei"}, {"measurement": "ΔTm at 5 µM", "setting": "PvNMT[WT] [2]", "value": "> 8.8", "unit": "°C"}, {"measurement": "decrease in affinity (KD PvNMT[G386E] / KD PvNMT[WT])", "setting": "PvNMT[G386E] [3]", "value": "approximately 5 fold"}, {"measurement": "YnMyr labeling in PfNMT[G386E] parasite clones", "setting": "[4]", "value": "no reduction in labeling"}, {"measurement": "HsNMT1/PvNMT fold difference in IC50", "setting": "HsNMT1", "value": 2.32}, {"measurement": "dissociation rate with PvNMT[WT]", "setting": "PvNMT[WT] [5]", "value": "slow dissociation rate"}, {"measurement": "EC50", "setting": "[6]", "value": 35, "unit": "nM"}, {"measurement": "EC50", "setting": "[6]; Plasmodium falciparum, DD2, 72 h", "value": "20.4 ± 4.9", "unit": "nM"}, {"measurement": "IC50 ratio of G386E/WT on average", "setting": "PvNMT[G386E] [7]", "value": 2.6}, {"measurement": "Ratio PvNMT[G386E]/PvNMT[WT] IC50, Replicate 1", "setting": "PvNMT[G386E] [7]", "value": 3.1}, {"measurement": "Ratio PvNMT[G386E]/PvNMT[WT] IC50, Replicate 2", "setting": "PvNMT[G386E] [7]", "value": 3.4}, {"measurement": "Ratio PvNMT[G386E]/PvNMT[WT] IC50, Replicate 3", "setting": "PvNMT[G386E] [7]", "value": 1.4}, {"measurement": "IC50", "setting": "PvNMT[G386E] [7]; PvNMT[G386E] IC50, Replicate 1", "value": 6, "unit": "nM"}, {"measurement": "IC50", "setting": "PvNMT[G386E] [7]; PvNMT[G386E] IC50, Replicate 2", "value": 7.1, "unit": "nM"}, {"measurement": "IC50", "setting": "PvNMT[G386E] [7]; PvNMT[G386E] IC50, Replicate 3", "value": 6.9, "unit": "nM"}, {"measurement": "fold more potent in killing parasites than DDD85646", "setting": "[8]", "value": 4, "unit": "fold"}, {"measurement": "EC50", "setting": "[8]; [16]", "value": 9.6, "unit": "nM"}, {"measurement": "EC50", "setting": "[8]; 3D7 parasites, initial EC50 determination (Figures 2A, S2A), read-out: parasite growth EC50", "value": 34, "unit": "nM"}, {"measurement": "EC50", "setting": "[9]; read-out: EC50 Clone 01", "value": "270 ± 40", "unit": "nM"}, {"measurement": "EC50", "setting": "[9]; read-out: EC50 Clone 02", "value": "300 ± 140", "unit": "nM"}, {"measurement": "EC50", "setting": "[9]; read-out: EC50 Clone 03", "value": "240 ± 63", "unit": "nM"}, {"measurement": "EC50", "setting": "[9]; read-out: EC50 uncloned population", "value": "320 ± 50", "unit": "nM"}, {"measurement": "increase in EC50 of IMP-1002-resistant clones", "setting": "[9]; resistant Dd2 clones versus Dd2 parental line", "value": 14, "unit": "fold"}, {"measurement": "thermal stabilization (ΔTm) of PvNMT[G386E]", "setting": "PvNMT[G386E] [10]; absence of MyrCoA", "value": 1.8, "unit": "°C"}, {"measurement": "ΔΔTm between PvNMT[WT] and PvNMT[G386E]", "setting": "PvNMT[G386E] [10]; absence of MyrCoA (Table S4A), in favor of WT", "value": "> 7.0", "unit": "°C"}, {"measurement": "HsNMT2/PvNMT fold difference in IC50", "setting": "HsNMT2", "value": 3.84}, {"measurement": "YnMyr labeling in WT parasites", "setting": "[11]", "value": "clear decrease in YnMyr labeling"}, {"measurement": "accumulation of NMT substrate GAP45", "setting": "[12]", "value": "inhibiting accumulation"}, {"measurement": "number of nuclei versus DMSO control, PfNMT[G386E] parasites", "setting": "PfNMT[G386E] parasites; 140 nM for 45 h from ring stage", "value": "no difference"}, {"measurement": "inhibition at 0.14 µM", "setting": "PfNMT[G386E] parasites; Plasmodium falciparum, read-out: inhibition of [G386E] parasites", "value": 0, "unit": "%"}]}, {"compound": "Cc1nn(C)c(C)c1NS(=O)(=O)c1c(Cl)cc(-c2ccnc(N3CCNCC3)c2)cc1Cl", "note": "[DDD85646, reference compound]", "values": [{"measurement": "EC50", "setting": "[1]; [14]", "value": 91, "unit": "nM"}, {"measurement": "EC50", "setting": "[1]; [15]", "value": 103, "unit": "nM"}, {"measurement": "nuclei at stalled pseudoschizont stage", "setting": "[13]", "value": "4–6 nuclei"}, {"measurement": "EC50", "setting": "[8]; [16]", "value": 69, "unit": "nM"}]}]}
